Test results published in patent publication US11179294B2, “Preservative removal from eye drops” (TearClear Corp., priority 2019, dated 2021).
Where a name gives a salt, the structure may show the parent alone.

How the values were obtained:
Assay type in all cases: physicochemical
[1] = Bimatoprost API/BAK uptake drop test through tip loaded with recrystallized stearic acid flakes (Table 8)
Method: Bimatoprost ophthalmic solution (20 mL) was formulated by combining 0.0027 g of Citric Acid Anhydrous (Alfa Aesar L #X16D073), 0.0536 g of Sodium phosphate dibasic, heptahydrate (Fisher chemical L #187384) and 0.1619 g of Sodium Chloride (Fisher chemical L #177082) to 20 g stock solution (2NB70.1) of 300 ppm Bimatoprost and 50 ppm BAK.
Bimatoprost formulation (3 mL), was placed into a 5 mL dropper bottle. Recrystallized Stearic acid flakes (0.116 g) was loaded into a proprietary testing tip. The tip was then placed on the dropper bottle containing the solution.
In a simulated usage, two drops are dispensed and diluted according to the proper method for HPLC analysis. Additional pairs of drops are dispensed at intervals no less than 1 hour apart. A standard consisting of the starting material is taken and diluted according to the specific HPLC method. Then each pair of drops was analyzed on the HPLC. The uptake is determined by comparing the area counts of the starting solution to the area counts of the drop. Bimatoprost has a similar linear signal range as BAK in this formulation so all data is collected from a single drop test. […] In successive drops, the BAK is not detected (e.g., is undetectable, is below a detectable threshold based on UV absorption, etc.).

[2] = Lifitegrast BAK uptake drop test through tip loaded with 50/50 polypropylene/stearic acid blend (Table 10)
Method: (§1) A Lifitegrast ophthalmic solution (e.g., Xiidra mimic in the table) was prepared, consisting of 5.0% Lifitegrast (BOC Sciences Lot B19V08071), 2.0% Sodium Phosphate Dibasic Anhydrous (J. T. Baker Lot 0000236665), 0.5% Sodium thiosulfate pentahydrate (Fisher Chemical Lot 181801), and 0.005% BAK Aldrich 12063 (Lot #BCBW4741).
(§2) Three mL of the Lifitegrast formulation was placed into a 5 mL dropper bottle. 50/50 polypropylene/steric acid blend (0.328 g) was loaded into a proprietary testing tip. The tip was then placed on the dropper bottle containing the solution.
(§3) In a simulated usage, two drops are dispensed and diluted according to the proper method for HPLC analysis. Due to the relatively high concentration of Lifitegrast, 2 separate drops tests were done for the active pharmaceutical ingredient and BAK. A standard consisting of the starting material is taken and diluted according to the specific HPLC method. Then each pair of drops was analyzed on the HPLC. The uptake is determined by comparing the area counts of the HPLC peaks of the starting solution to the area counts of the drop.

[3] = Timolol Maleate/Brimonidine tartrate BAK uptake drop test through tip loaded with 20/80 polypropylene/stearic acid powder (Table 7); conditions: solution 2NB62 through 20/80 blend tip
Method: (§4) A Timolol Maleate/Brimonidine tartrate ophthalmic solution was prepared (e.g., 2NB62, a Combigan analogue, etc) according to Table 5. The following were added to a 500 mL bottle: 2.151 g of Sodium Phosphate dibasic heptahydrate (Fisher Chemical L #187384), 0.432 g of Sodium Phosphate monobasic monohydrate (Fisher Chemical L #188731), 0.505 g of 0.991% BAK solution (Lot 2NB61), 0.202 g of Brimonidine Tartrate (BOC Sciences L #BV19V06171), and 0.681 g of Timolol Maleate (BOC Sciences L #BS19V04062). Ultra-pure water (100.017 g) of was added and stirred on a rotary shaker overnight to dissolve. Three mL of the solution, 2NB62, was placed into a 5 mL dropper bottle. Stearic acid/polypropylene powder (0.32 g) was loaded into a proprietary testing tip. The tip was then placed on the dropper bottle containing the solution.
In a simulated usage, two drops are dispensed and diluted according to the proper method for HPLC analysis. […] Then each individual drop is analyzed on the HPLC. The uptake is determined by comparing the area counts from the HPLC peaks of the starting solution to the area counts of the drop.
A separate, parallel drop test was performed using the same materials to test BAK uptake. […] In successive drops, the BAK is not detected (e.g., is undetectable, is below a detectable threshold based on UV absorption, etc.).

[4] = Timolol Maleate/Brimonidine tartrate API uptake drop test through tip loaded with 20/80 polypropylene/stearic acid powder (Table 6); conditions: solution 2NB62, 0.32 g stearic acid/polypropylene powder in tip, HPLC area counts of drops vs starting solution
Method: as §4
In a simulated usage, two drops are dispensed and diluted according to the proper method for HPLC analysis. Additional pairs of drops are dispensed at intervals no less than 1 hour (hr) apart. A standard consisting of the starting material is taken and diluted according to the specific HPLC method. Then each individual drop is analyzed on the HPLC. The uptake is determined by comparing the area counts from the HPLC peaks of the starting solution to the area counts of the drop.

[5] = Lifitegrast API uptake drop test through tip loaded with 50/50 polypropylene/stearic acid blend (Table 9); conditions: 5.0% Lifitegrast formulation, 0.328 g 50/50 blend in tip
Method: as §1, §2, §3

[6] = 300 ppm Bimatoprost / 50 ppm BAK formulation, 0.116 g recrystallized stearic acid flakes in tip

## Benzalkonium chloride [BAK]
[1]; [6]
  BAK after passing through the flakes: eliminated
[1]; successive drops, recrystallized stearic acid flakes tip
  BAK in successive drops: not detected
[2]; drops after the first, Lifitegrast formulation through 50/50 blend tip
  BAK in later drops: not detectable
[2]; first drop, Lifitegrast formulation with 0.005% BAK through 50/50 blend tip
  BAK in first drop: only a small amount
[3]; drops after the first, UV detection
  BAK in successive drops: not detected
[3]; first drop
  BAK in first drop, share of starting BAK: about 5%

## CCNC(=O)CCC/C=C\C[C@@H]1[C@@H](/C=C/[C@@H](O)CCc2ccccc2)[C@H](O)C[C@@H]1O [Bimatoprost]
[1]; [6]
  Bimatoprost concentration after passing through the flakes: not significantly reduced

## Brimonidine Tartrate
[4]
  API concentration after passing through the powder in the tip: neither the concentration of Timolol nor Brimonidine are significantly affected

## CS(=O)(=O)c1cccc(C[C@H](NC(=O)c2c(Cl)cc3c(c2Cl)CCN(C(=O)c2ccc4ccoc4c2)C3)C(=O)O)c1 [Lifitegrast]
[5]
  Lifitegrast passage through the tip: not hindered

## CC(C)(C)NC[C@H](O)COc1nsnc1N1CCOCC1 [Timolol, Timolol Maleate]
[4]
  API concentration after passing through the powder in the tip: neither the concentration of Timolol nor Brimonidine are significantly affected
